This is an account of results in patent US10124065B2, “Lipids and lipid compositions for the delivery of active agents” (Novartis AG, priority 2013, dated 2018).

The data set can be described thus: Polydispersity index (PDI) of lipid nanoparticle (dynamic light scattering). Type of data set: physicochemical. Here is the method:
Unless indicated otherwise, all PDIs referred to herein are the PDI of the fully formed nanoparticle, as measured by dynamic light scattering on a Malvern Zetasizer. The nanoparticle sample was diluted in phosphate buffered saline (PBS) so that the count rate was approximately 200-400 kcts. The data is presented in Tables 4 and 5 as a weighted average of the intensity measure.

As for `CCCCCCCCCCOC(=O)CCCCCCCOc1cc(CN(C)C)cc(OCCCCCCCC(=O)OCCCCCCCCCC)c1` [Example 57, didecyl 8,8′-((5-((dimethylamino)methyl)-1,3-phenylene)bis(oxy))dioctanoate], the PDI by setting is: (FVII siRNA LNP, Chol/DSPC/PEG-DMG, molar ratio 45/44/9/2) 0.03; (FVII siRNA LNP, Chol/DSPC/S010, molar ratio 45/44/9/2) 0.059; (PLK1-424 siRNA LNP, Chol/DSPC/S010 45/44/9/2) 0.038; (leptin mRNA lipid nanoparticles) 0.102.
